In patent publication EP4512806A1, “MOLECULAR GLUE DEGRADERS AND USES THEREOF” (Mablink Bioscience, priority 2023, dated 2025):
Peptide text beside a SMILES is read from it. * marks the point of attachment. Cbz = O=C(OCc1ccccc1)*

Legend:
[1] = tested on: BT-474; assay: In vitro cytotoxicity assay (MTT); format: cell-based, human; settings: 6 days incubation
Text: (§1) Human cancer cell lines used in the present project were purchased from either the American Type Culture Collection (ATCC), The Leibniz Institute DSMZ German Collection of Microorganisms and Cell Cultures GmbH (DSMZ) or the European Collection of Authenticated Cell Cultures (ECACC). For use in experiments, cells were cultivated following good and established cell culture practices, following instructions from the original ATCC/DSMZ/ECACC supplier for cell culture media & supplement, cryopreservation, and subculturing procedures. Cells were incubated under a 5% CO2 atmosphere at 37°C for no longer than 2 months.
(§2) In vitro cytotoxicity of compounds of the disclosure was assessed on several cancerous human cell lines. Cells were plated in 96-well plates at an appropriate density depending on the cell line (between 1000 and 10 000 cells/well in 100µL of appropriate culture media) and incubated at 37°C for 24 hours. Serial dilutions of the tested compound previously dissolved in culture media (50µL) were added, and incubation was carried at 37°C out for 6 days. MTT (5mg/mL in PBS, 20µL, Sigma-Aldrich) was added into the wells, and incubation was continued for 1 to 4 hours at 37°C. Culture media was then carefully removed, and well content was homogeneously dissolved with acidified isopropanol. Absorbance values were measured on a microplate reader using a wavelength of 570 nm (with a reference wavelength of 690 nm). The IC50 concentration values compared to untreated control cells were determined using inhibition dose response curve fitting (GraphPad Prism 9). Exatecan mesylate (cat#HY-13631A) and CR8 (CAS# 294646-77-8; cat#HY-18340) were purchased from MedChemExpress (China).

[2] = tested on: JIMT-1; assay: In vitro cytotoxicity assay (MTT); format: cell-based, human; settings: 6 days incubation
Text: as §1, §2

[3] = tested on: MDA-MB-231; assay: In vitro cytotoxicity assay (MTT); format: cell-based, human; settings: 6 days incubation
Text: as §1, §2

[4] = tested on: MDA-MB-453; assay: In vitro cytotoxicity assay (MTT); format: cell-based, human; settings: 6 days incubation
Text: as §1, §2

[5] = tested on: NCI-N87; assay: In vitro cytotoxicity assay (MTT); format: cell-based, human; settings: 6 days incubation
Text: as §1, §2

[6] = tested on: SKBR-3; assay: In vitro cytotoxicity assay (MTT); format: cell-based, human; settings: 6 days incubation
Text: as §1, §2

[7] = Passive permeability assessment (PAMPA assay); format: in vitro ADME; settings: in words
Experimental: Stock solutions of compounds of the invention were prepared in dimethyl sulfoxide (DMSO) to a final concentration of 10 mM. Each stock solution was diluted to 50 µM in pH 7.4 Prisma HT buffer (pION) in the presence of 10% MeOH (v/v). 200 µL were added to each well of the donor plate in quintuplicate. […] The acceptor filter plate was carefully placed on top of the donor plate to form a "sandwich." The sandwich was incubated at 25°C for 5 h, at 300 rpm. UV-vis spectra of the solutions in the blank, reference, acceptor, and donor plates were measured using a Tecan Infinite 200 PRO M Nano Plus microplate reader. For each compound, apparent permeability values Papp (10^-6 cm/s) were calculated using the PAMPA Explorer software v.3.6 (pION).

[8] = target: T1, MDR1 (Homo sapiens, UniProt P08183); assay: MDR1 efflux substrate assay (MDCK-MDR1); format: in vitro ADME; settings: MDCK-MDR1, 5µM, 60 min, in words
T1 construct: host or cells: MDCK-MDR1
Experimental: (§3) MDR1 and BCRP efflux substrate assays were conducted in MDCK-MDR1 and MDCK-BCRP in vitro models (Preadyport™, Solvo Biotech) at Symeres (Nederland). Compound of the invention (donor well concentration of 5µM) were incubated in cell monolayer 24-transwell Preadyport system, using Preadyport recommended pH 7.4 assay buffer (donor and receiver wells). After 60 min of incubation (no shaking), samples are collected and suspended into triple volume of 66% cold acetonitrile. Samples are stored at -20°C until thawed, centrifuged and analyzed by LC-MS. Quinidine was used a positive control for the MDR1 assay, and prazosin was used as a positive control for the BCRP assay. Exatecan was used as a control, known not to be an MDR1 substrate. Residual DMSO content from compounds stock solutions was below 1% (v/v). The assay was performed in duplicate. The quantification of test compounds in donor or receptor compartment is conducted using relative LC/MS peak areas (samples of initial incubation solutions are used as a single point calibrator), without any spiked standard samples. The data is used for estimating apparent permeability (Papp) and calculation of efflux ratio.
MDR1 is protein of the tumor cell membrane that pumps the anticancer drugs out of cancer cells, thereby rendering the cell drug-resistant. The Papp (10^-6 cm/s) B (acceptor = basolateral) to A (donor = apical) reflects the susceptibility of a compounds to be pumped out of a tumor and as such a low Papp B→A value is advantageous in the context of oncology. The efflux ratio B/A reflects the overall ability of a compounds to enter MDR1-expressing tumor cells (equilibrium between ability to passively enter the cell A→B and susceptibility to be pumped out of a tumor B→A).

[9] = target: T2, BCRP (Homo sapiens, UniProt Q9UNQ0); assay: BCRP efflux substrate assay (MDCK-BCRP); format: in vitro ADME; settings: 5µM, 60 min, in words
T2 construct: host or cells: MDCK-BCRP
T2 sequence (Q9UNQ0 1-655): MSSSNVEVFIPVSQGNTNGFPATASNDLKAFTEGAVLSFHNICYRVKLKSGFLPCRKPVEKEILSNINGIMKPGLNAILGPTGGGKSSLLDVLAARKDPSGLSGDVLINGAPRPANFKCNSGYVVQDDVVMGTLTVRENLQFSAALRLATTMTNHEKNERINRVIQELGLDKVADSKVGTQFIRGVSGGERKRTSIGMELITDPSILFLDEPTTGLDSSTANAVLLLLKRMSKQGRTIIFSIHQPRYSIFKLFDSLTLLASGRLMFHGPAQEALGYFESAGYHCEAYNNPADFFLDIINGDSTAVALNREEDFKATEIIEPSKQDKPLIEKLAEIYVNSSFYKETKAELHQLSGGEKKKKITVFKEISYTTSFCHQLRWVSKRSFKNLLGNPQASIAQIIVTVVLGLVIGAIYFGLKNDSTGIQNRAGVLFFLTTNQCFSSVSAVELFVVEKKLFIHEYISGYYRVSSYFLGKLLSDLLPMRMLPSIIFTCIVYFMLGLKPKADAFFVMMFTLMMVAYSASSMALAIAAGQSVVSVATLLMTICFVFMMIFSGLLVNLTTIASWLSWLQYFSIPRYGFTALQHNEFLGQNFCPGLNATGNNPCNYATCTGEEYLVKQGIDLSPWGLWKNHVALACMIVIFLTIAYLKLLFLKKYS
Experimental: as §3
BCRP, like MDR1, is a protein of the tumor cell membrane that pumps the anticancer drugs out of cancer cells, thereby rendering the cell drug-resistant. This multidrug-resistant protein is particularly expressed in breast and lung cancers. The efflux ratio B/A reflects the overall ability of a compounds to enter BCRP-expressing tumor cells (equilibrium between ability to passively enter the cell A→B and susceptibility to be pumped out of a tumor B→A).

[10] = In vivo mice tolerability assessment; settings: female CD-1 mice, single intravenous 1mg/kg dose, Mean
Experimental: All animal procedures were performed in accordance with the European Union directive 86/609/EEC. Experiments were performed under individual permit and in accredited animal care facilities.
Mouse tolerability experiments were performed with selected compounds of the disclosure. Female CD-1 mice (n=5 mice per group) were treated with a single intravenous 1mg/kg dose of compound. Vehicle was PBS pH 6.0. Mice were carefully monitored for mortality, external clinical findings, weight loss, behavior and apparent signs of toxicity over the course of 21 days.

[11] = target: T3, CycK (Homo sapiens, UniProt O75909); assay: CycK protein quantification by Western Blot in JIMT-1 cells; format: cell-based; settings: 2h
T3 construct: endogenous in cells; host or cells: JIMT-1
Experimental: 1×10^6 JIMT-1 cells were plated in 3mL of DMEM/FBS 90:10 (v/v) in 6-well plates and incubated overnight. Cells were treated with the compound 2384 of the invention with or without the proteasome inhibitor MG-132 (MedChemExpress, Cat HY-13259) for 2h. Cells were harvested, and protein were extracted using complete RIPA buffer (RIPA buffer, 1 mM DTT, 1M NaF, 100 mM sodium orthovanadate, phosphatase inhibitor buffer and protease inhibitors) for 1 hour on ice. Lysate were centrifuged 15min at 12 000g at 4°C. and proteins were mixed with 4x Laemmli Sample Buffer (Bio-Rad), heated at 95 °C for 5 mins and separated by SDS PAGE (PROTEAN TGX Stain-Free Gels, Bio-Rad). Proteins were then transferred onto PVDF membrane (iBlot®2 PVDF stacks, Invitrogen) using the iBlot2 device (Invitrogen) and blocked with TBS buffer (Intercept® Blocking Buffer, LI-COR Biosciences). Primary antibodies were incubated overnight at 4°C and secondary antibodies (IRDye Infrared Dyes from LI-COR Biosciences) 1 hour at room temperature. Used primary antibody were: anti-CycK (cat#A301-939A, Bethyl Laboratories, dil. 1:1000) and anti-β-actin (cat#A5441, Sigma-Aldrich, dil. 1:5000). Membranes were scanned using a c500 Imaging System (Azure Biosystems) and densitometric quantification were performed using imaged software. Protein levels were normalized against β-actin.

T1 sequence (P08183 whole entry): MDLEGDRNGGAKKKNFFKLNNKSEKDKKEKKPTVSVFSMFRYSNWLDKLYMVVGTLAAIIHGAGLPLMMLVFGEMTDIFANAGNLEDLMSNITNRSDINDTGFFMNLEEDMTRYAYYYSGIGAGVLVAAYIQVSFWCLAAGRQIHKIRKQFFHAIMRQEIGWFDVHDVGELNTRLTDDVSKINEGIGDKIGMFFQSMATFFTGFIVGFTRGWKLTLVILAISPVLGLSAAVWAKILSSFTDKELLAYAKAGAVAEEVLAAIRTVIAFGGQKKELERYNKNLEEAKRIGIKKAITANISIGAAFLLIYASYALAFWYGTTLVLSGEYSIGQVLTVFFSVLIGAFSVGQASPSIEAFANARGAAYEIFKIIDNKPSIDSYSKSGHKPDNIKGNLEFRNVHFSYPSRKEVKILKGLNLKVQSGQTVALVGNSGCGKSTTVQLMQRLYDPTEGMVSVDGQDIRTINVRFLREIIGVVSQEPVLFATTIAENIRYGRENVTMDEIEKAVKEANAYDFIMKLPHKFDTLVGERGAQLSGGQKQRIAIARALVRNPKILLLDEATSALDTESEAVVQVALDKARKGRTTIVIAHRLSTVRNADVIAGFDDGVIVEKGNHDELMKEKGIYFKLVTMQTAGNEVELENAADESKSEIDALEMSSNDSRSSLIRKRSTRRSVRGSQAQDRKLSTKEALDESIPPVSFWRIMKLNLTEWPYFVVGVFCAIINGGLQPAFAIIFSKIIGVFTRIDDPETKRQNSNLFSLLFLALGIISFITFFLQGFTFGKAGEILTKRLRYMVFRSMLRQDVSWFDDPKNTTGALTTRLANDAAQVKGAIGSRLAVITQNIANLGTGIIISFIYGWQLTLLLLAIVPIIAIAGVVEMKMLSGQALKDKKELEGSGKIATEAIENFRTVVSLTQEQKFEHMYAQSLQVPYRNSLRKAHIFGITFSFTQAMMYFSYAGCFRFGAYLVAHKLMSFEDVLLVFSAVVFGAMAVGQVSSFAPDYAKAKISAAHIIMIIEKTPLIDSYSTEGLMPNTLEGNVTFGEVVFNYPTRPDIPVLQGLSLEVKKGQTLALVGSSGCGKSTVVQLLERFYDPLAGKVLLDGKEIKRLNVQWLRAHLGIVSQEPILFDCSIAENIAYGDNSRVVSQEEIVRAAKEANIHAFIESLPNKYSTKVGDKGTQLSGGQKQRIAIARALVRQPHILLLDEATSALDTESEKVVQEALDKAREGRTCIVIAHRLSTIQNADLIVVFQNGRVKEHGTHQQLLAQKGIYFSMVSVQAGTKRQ
T3 sequence (O75909 whole entry): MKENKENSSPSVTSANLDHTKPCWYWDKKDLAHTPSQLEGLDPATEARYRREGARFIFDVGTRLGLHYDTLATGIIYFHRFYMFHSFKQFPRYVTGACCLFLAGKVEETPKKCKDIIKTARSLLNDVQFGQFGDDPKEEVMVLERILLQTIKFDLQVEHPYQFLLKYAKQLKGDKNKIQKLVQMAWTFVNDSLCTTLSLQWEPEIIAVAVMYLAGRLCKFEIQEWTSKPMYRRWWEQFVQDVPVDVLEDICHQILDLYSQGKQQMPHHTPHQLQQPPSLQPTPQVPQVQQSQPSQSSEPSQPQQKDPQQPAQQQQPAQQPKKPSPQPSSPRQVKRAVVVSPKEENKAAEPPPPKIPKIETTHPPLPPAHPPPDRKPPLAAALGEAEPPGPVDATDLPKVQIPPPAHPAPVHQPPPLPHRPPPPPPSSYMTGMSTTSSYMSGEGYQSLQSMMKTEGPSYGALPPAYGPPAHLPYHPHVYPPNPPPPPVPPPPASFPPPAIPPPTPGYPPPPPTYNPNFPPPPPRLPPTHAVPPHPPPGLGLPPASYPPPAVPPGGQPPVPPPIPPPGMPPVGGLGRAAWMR
T3 sequence (Q9NYV4 whole entry partner): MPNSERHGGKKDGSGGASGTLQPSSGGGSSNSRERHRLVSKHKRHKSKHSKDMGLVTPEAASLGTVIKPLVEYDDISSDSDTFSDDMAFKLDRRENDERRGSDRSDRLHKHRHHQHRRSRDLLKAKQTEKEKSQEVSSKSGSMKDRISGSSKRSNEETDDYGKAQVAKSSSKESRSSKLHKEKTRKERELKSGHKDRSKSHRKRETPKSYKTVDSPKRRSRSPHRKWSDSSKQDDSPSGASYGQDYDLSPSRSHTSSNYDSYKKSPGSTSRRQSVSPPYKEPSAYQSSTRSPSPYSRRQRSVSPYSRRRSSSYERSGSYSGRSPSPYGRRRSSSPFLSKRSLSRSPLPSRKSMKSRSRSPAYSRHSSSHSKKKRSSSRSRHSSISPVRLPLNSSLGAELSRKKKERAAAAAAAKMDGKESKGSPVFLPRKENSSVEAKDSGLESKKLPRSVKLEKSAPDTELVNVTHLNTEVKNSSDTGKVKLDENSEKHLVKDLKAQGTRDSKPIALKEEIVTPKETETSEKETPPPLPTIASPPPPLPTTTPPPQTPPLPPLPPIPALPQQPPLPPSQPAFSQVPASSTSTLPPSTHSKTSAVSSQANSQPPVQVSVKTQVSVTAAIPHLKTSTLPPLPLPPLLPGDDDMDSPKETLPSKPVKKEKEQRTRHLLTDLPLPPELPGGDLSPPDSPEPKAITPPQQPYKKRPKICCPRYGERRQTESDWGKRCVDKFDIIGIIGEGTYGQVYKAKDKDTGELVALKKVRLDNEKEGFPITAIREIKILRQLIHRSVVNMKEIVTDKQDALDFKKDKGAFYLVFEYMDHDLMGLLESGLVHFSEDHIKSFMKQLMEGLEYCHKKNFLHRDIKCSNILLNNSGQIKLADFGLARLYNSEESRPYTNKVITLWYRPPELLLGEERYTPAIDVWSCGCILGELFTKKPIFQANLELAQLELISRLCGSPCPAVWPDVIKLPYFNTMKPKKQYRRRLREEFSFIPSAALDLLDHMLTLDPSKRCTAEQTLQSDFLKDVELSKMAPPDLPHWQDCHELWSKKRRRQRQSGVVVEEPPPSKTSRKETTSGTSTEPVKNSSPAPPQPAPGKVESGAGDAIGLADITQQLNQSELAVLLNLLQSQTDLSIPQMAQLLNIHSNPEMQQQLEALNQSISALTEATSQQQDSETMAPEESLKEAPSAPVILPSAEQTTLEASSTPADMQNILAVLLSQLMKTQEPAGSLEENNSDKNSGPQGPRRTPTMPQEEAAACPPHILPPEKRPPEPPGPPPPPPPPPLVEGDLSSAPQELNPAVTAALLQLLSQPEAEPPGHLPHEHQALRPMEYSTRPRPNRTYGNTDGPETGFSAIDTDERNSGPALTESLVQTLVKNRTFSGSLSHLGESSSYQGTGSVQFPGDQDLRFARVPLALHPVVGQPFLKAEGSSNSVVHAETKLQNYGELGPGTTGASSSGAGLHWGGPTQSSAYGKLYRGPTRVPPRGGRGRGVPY
T3 sequence (Q16531 whole entry partner): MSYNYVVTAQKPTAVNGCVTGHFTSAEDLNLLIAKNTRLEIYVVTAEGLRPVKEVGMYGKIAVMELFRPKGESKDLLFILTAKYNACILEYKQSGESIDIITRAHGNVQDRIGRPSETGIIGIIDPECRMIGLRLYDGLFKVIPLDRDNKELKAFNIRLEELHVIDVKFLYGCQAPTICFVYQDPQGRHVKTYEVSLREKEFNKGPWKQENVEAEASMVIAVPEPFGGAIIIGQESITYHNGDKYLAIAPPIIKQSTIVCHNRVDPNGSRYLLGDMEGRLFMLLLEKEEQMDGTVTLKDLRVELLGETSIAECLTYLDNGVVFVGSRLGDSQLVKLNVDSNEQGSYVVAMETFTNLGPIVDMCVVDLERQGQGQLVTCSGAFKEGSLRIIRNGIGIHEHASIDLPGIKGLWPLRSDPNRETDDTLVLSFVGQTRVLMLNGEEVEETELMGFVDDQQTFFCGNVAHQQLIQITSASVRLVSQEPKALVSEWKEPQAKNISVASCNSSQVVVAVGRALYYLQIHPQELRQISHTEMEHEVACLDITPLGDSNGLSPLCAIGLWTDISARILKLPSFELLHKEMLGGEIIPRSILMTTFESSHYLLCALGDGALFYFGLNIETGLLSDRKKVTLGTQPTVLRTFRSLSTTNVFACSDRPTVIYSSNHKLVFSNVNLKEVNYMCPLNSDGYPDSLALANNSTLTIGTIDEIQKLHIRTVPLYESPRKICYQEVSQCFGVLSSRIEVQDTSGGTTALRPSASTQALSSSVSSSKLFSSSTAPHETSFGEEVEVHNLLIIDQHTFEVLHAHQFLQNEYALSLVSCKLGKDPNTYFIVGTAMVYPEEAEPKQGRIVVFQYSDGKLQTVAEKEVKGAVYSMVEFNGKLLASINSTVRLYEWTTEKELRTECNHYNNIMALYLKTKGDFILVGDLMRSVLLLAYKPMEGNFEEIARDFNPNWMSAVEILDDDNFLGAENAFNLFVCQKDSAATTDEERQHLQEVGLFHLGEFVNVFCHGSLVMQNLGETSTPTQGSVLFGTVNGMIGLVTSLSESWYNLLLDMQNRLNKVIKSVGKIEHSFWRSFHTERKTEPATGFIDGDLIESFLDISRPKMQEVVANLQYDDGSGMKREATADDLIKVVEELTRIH

Q: What does the source list for `Brc1cnn2c(Nc3ccc(CN4CCOCC4)cc3)nc(NC3CCNCC3)nc12` [Compound 2554]?
A: IC50 [1]: > 100 nM; IC50 [2]: > 100 nM; IC50 [3]: > 100 nM; IC50 [4]: > 100 nM; IC50 [5]: > 100 nM; IC50 [6]: > 100 nM

Q: With `NCCCCNc1nc(NCc2ccc(-c3ccccn3)cc2)n2ncc(Br)c2n1` [Compound 2585] as the compound, how does the passive permeability potential [7] read?
A: Its passive permeability potential is “none”.

Q: Which MDR1 efflux potential [8] does the source give for `CN(CCN)c1nc(NCc2ccc(-c3ccccn3)cc2)n2ncc(Br)c2n1` [Compound 2600] here?
A: The MDR1 efflux potential was “low level”.

Q: And the BCRP efflux potential [9]?
A: Its BCRP efflux potential is “low level”.

Q: For `CNCCN(C)c1nc(NCc2ccc(-c3ccccn3)cc2)n2ncc(Br)c2n1` [Compound 2605], which MDR1 efflux potential [8] is on record?
A: The MDR1 efflux potential was “low level”.

Q: And the BCRP efflux potential [9]?
A: Its BCRP efflux potential is “low level”.

Q: With `NC[C@H]1CC[C@H](Nc2nc(NCc3ccc(-c4ccccn4)cc3)n3ncc(Br)c3n2)CC1` [Compound 2636] as the compound, how does the passive permeability potential [7] read?
A: The passive permeability potential was “moderate”.

Q: For `N[C@H]1CCN(c2nc(NCc3ccc(-c4ccccn4)cc3)n3ncc(Br)c3n2)C1` [Compound 2655], which MDR1 efflux potential [8] is on record?
A: The MDR1 efflux potential was “low level”.

Q: And the BCRP efflux potential [9]?
A: Its BCRP efflux potential is “low level”.

Q: Which results are given for `Brc1cnn2c(NCc3ccc(-c4ccccn4)cc3)nc(N[C@H]3CCNC3)nc12` [Compound 2657]?
A: IC50 [1]: 1.71 nM; IC50 [3]: 0.56 nM; IC50 [4]: 0.77 nM; IC50 [5]: 0.43 nM; IC50 [6]: 0.13 nM; average weight change (% initial weight) ([10]; Study Day 1): 0.0 % initial weight; average weight change (% initial weight) ([10]; Study Day 2): 1.3 % initial weight; average weight change (% initial weight) ([10]; Study Day 3): 1.5 % initial weight; average weight change (% initial weight) ([10]; Study Day 4): 1.7 % initial weight; average weight change (% initial weight) ([10]; Study Day 5): 2.3 % initial weight; average weight change (% initial weight) ([10]; Study Day 6): 4.2 % initial weight; average weight change (% initial weight) ([10]; Study Day 7): 3.3 % initial weight; average weight change (% initial weight) ([10]; Study Day 8): 4.2 % initial weight; average weight change (% initial weight) ([10]; Study Day 9): 4.5 % initial weight; average weight change (% initial weight) ([10]; Study Day 10): 7.8 % initial weight; average weight change (% initial weight) ([10]; Study Day 11): 7.7 % initial weight; average weight change (% initial weight) ([10]; Study Day 12): 8.0 % initial weight; average weight change (% initial weight) ([10]; Study Day 13): 7.9 % initial weight; average weight change (% initial weight) ([10]; Study Day 14): 8.0 % initial weight; average weight change (% initial weight) ([10]; Study Day 15): 7.9 % initial weight; average weight change (% initial weight) ([10]; Study Day 16): 9.4 % initial weight; average weight change (% initial weight) ([10]; Study Day 17): 9.3 % initial weight; average weight change (% initial weight) ([10]; Study Day 18): 9.8 % initial weight; average weight change (% initial weight) ([10]; Study Day 19): 10.5 % initial weight; average weight change (% initial weight) ([10]; Study Day 20): 11.4 % initial weight; average weight change (% initial weight) ([10]; Study Day 21): 12.0 % initial weight

Q: With `N[C@H]1CCCC[C@@H]1Nc1nc(NCc2ccc(-c3ccccn3)cc2)n2ncc(Br)c2n1` [Compound 2671] as the compound, how does the passive permeability potential [7] read?
A: Its passive permeability potential is “high”.

Q: For `CC(C)C[C@@H](C=O)NC(=O)[C@H](CC(C)C)NC(=O)[C@H](CC(C)C)NC(=O)OCc1ccccc1` [MG-132, reference compound] (Cbz-Leu-Leu-Leu-aldehyde), which “CycK protein content in combination with proteasome inhibitor” value ([11]; degrader combined with MG-132) is on record?
A: The value was “restored the content in cycK protein”.

Q: Which CycK protein content ([11]; 1µM final concentration) does the source give for `CN(C)C/C=C/C(=O)Nc1ccc(C(=O)N2CCC[C@@H](Nc3ncc(Cl)c(-c4c[nH]c5ccccc45)n3)C2)cc1` [THZ-531, reference compound] here?
A: The CycK protein content was “no impact”.
